Measured values reported in patent US20260083865A1, “PROSTATE SPECIFIC MEMBRANE ANTIGEN (PSMA) LIGANDS AND USE THEREOF” (priority 2022, published 2026).
Where two headings read alike, the source gives them in different places. Numbered stars: 1 amine (or outer) side, 2 acyl side, 3 side chain; on linkers, the order of the positions; unused ones are H or OH. Bridge positions count the residues as written; N and C are the ends. Square brackets hold non-standard residues; d marks the D form. Peptide text beside a SMILES is read from it. * marks the point of attachment. DOTA = O=C(O)CN1CCN(CC(=O)O)CCN(CC(=O)*)CCN(CC(=O)O)CC1; Phe(3-CF3) = N[C@@H](Cc1cccc(C(F)(F)F)c1)C(=O)O; Phe(3-CN) = N#Cc1cccc(C[C@H](N)C(=O)O)c1; Phe(3-Cl) = N[C@@H](Cc1cccc(Cl)c1)C(=O)O; Phe(4-Cl) = N[C@@H](Cc1ccc(Cl)cc1)C(=O)O; Arg(Me) = CNC(=N)NCCC[C@H](N)C(=O)O; d(αMeD) = C[C@@](N)(CC(=O)O)C(=O)O; tBuAla = CC(C)(C)C[C@H](N)C(=O)O; X1 = O=C(CC1CCN([*:1])CC1)[*:2]; Cit = NC(=O)NCCC[C@H](N)C(=O)O; Lys(Me) = CNCCCC[C@H](N)C(=O)O; Tle = CC(C)(C)[C@H](N)C(=O)O; Propanoyl(3-OH) = O=C(CCO)*; Pyridin(2-yl) = c1ccc(*)nc1; 4Amb = NCc1ccc(C(=O)O)cc1; αMeS = C[C@](N)(CO)C(=O)O; Orn = NCCC[C@H](N)C(=O)O; NHCH2tBu = CC(C)(C)CN*; Aib = CC(C)(N)C(=O)O; CO = O=C([*:1])[*:2]; βAla = NCCC(=O)O; NHBu = CCCCN*

Columns and labels:
[1] = target: T1, PSMA-expressing C4-2 cells (Homo sapiens, UniProt Q04609); experiment: FACS binding assay (competition with 50 nM PSM-0183); conditions: C4-2 cells; for IC50: read-out: pIC50 [C4-2] CAT (converted)
T1 construct: PSMA-expressing C4-2 cells (ATCC, Cat. No. CRL-3314) were cultured in RPMI-1640; host or cells: C4-2 cells
T1 sequence (Q04609 whole entry): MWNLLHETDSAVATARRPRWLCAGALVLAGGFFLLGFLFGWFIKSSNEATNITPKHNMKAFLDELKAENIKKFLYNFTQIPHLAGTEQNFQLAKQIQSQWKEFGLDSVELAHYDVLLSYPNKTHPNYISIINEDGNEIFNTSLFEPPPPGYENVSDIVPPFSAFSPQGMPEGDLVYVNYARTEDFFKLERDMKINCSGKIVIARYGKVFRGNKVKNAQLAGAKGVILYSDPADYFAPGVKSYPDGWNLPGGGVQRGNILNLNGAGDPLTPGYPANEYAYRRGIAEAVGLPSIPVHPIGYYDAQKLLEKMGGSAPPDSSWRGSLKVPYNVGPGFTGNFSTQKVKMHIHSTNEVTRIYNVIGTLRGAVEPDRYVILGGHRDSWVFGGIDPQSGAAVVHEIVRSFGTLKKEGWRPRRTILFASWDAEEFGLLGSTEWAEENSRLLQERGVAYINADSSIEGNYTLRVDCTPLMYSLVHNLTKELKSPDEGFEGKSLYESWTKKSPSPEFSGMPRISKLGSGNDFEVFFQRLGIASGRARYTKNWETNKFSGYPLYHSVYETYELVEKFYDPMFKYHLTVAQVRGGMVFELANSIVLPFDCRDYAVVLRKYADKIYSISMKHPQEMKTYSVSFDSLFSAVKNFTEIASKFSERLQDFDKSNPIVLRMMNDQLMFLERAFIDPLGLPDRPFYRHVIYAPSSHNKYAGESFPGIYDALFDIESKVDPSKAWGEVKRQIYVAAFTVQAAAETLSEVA
Summary of the method: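 Competition format: fluorescent tracer PSM-0183 (50 nM) displaced from PSMA on C4-2 cells by a test compound titration over 1 h at 4 °C. Bound tracer was quantified as flow-cytometric AF488 median fluorescence after washing. Four-parameter logistic fits of MFI data gave IC50 and pIC50.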

[2] = target: T2, Fc-fusion protein of human PSMA (hPSMA-Fc) (Homo sapiens, UniProt Q04609); experiment: Surface plasmon resonance assay (Biacore T200, single cycle kinetic); format: binding; conditions: for Kd: read-out: pKD CAT (converted)
T2 construct: purchased Acro Biosystems PSA-H5264
T2 sequence (Q04609 44-750 limits assumed): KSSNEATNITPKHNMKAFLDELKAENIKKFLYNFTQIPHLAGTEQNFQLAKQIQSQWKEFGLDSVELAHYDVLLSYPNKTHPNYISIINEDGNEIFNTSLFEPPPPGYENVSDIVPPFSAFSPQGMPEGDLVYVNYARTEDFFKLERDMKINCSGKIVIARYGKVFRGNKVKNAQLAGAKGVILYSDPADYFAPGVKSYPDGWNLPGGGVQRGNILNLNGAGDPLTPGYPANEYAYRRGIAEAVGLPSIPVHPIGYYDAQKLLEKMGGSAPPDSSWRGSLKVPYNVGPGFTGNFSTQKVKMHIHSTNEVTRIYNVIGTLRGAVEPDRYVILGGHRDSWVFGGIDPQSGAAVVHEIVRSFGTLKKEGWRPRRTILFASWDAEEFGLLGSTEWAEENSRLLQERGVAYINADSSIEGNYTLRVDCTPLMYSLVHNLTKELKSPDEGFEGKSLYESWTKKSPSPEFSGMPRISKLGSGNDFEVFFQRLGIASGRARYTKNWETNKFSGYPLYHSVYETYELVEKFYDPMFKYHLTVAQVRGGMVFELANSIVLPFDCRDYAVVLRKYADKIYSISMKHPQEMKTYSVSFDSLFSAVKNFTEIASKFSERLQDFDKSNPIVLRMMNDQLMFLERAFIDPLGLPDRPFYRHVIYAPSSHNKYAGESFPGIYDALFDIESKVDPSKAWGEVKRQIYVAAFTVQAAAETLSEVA
Summary of the method: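 KD, expressed as pKD, came from 1:1 Langmuir fits of reference- and buffer-blank-subtracted SPR data. The runs were single-cycle kinetics at 25° C in HBST/0.1% DMSO over human PSMA-Fc, captured to ~1000 RU on a peptide-coated CM5 surface and regenerated with 10 mM glycine pH 1.5.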

[3] = pKD category for PSMA SPR activity assay, hPSMA-Fc, 25° C.
[4] = FACS binding, competition with 50 nM PSM-0183, category
[5] = SPR, hPSMA-Fc, single cycle kinetic, 25° C., category

| Molecule | IC50 ([1]; pIC50 category of FACS binding) [nM] | Kd [2, 3] [nM] | also measured |
| --- | --- | --- | --- |
| C[C@@H](O)[C@H](NC(=O)[C@@H](NC(=O)[C@@H]1CSSC[C@H](NC(=O)[C@H](Cc2ccc(Cl)cc2)NC(=O)[C@](C)(CO)NC(=O)[C@@H](NC(=O)CC2CCN(C(=O)CN3CCN(CC(=O)O)CCN(CC(=O)O)CCN(CC(=O)O)CC3)CC2)[C@@H](C)O)C(=O)N[C@@H](CCCCN)C(=O)N[C@@H](CCCNC(=N)N)C(=O)N[C@@](C)(CO)C(=O)N[C@@H](CC(N)=O)C(=O)N1)C(C)(C)C)C(N)=O [PSM-0407, DOTA-Cmp-Thr-Ams-Pcf-[Cys-Lys-Arg-Ams-Asn-Cys]-Tle-Thr-NH2] ({DOTA}-[X1]T[αMeS][Phe(4-Cl)]CKR[αMeS]NC[Tle]T-NH2; disulfide 5-10) | < 200 | < 12.6 | – |
| CC(=O)N[C@H](C(=O)NC(C)(C)C(=O)N[C@@H](Cc1cccc(Cl)c1)C(=O)N[C@H]1CSSC[C@@H](C(=O)N[C@H](C(=O)N[C@H](C(=O)N[C@@H](CC(=O)O)C(N)=O)[C@@H](C)O)C(C)(C)C)NC(=O)[C@H](CC(N)=O)NC(=O)C(C)(C)NC(=O)[C@H](CCCNC(=N)N)NC(=O)[C@H](CCCCN)NC1=O)[C@@H](C)O [PSM-0383, Ac-Thr-Aib-Mcf-[Cys-Lys-Arg-Aib-Asn-Cys]-Tle-Thr-Asp-NH2] (Ac-T[Aib][Phe(3-Cl)]CKR[Aib]NC[Tle]TD-NH2; disulfide 4-9) | < 200 | < 12.6 | – |
| nBuCAyl-Thr-Aib-Phe-[Cys-Lys-Arg-Aib-Asn-Cys]-Tle-Thr-Cmp-lys(InDOTA)-NH2 [PSM-0214] | – | – | pIC50 [C4-2] CAT [1, 4]: A (pIC50 values >6.7); pKD CAT [2, 5]: A (pKD values >7.9) |
| CC(C)(NC(=O)c1ccc(CNC(=O)CN2CCN(CC(=O)O)CCN(CC(=O)O)CCN(CC(=O)O)CC2)cc1)C(=O)N[C@@H](Cc1ccc(Cl)cc1)C(=O)N[C@H]1CSSC[C@@H](C(=O)N[C@H](C(=O)NCCC(N)=O)C(C)(C)C)NC(=O)[C@H](CC(N)=O)NC(=O)C(C)(C)NC(=O)[C@H](CCCNC(=N)N)NC(=O)[C@H](CCCCN)NC1=O [PSM-0432, DOTA-Pamb-Aib-Pcf-[Cys-Lys-Arg-Aib-Asn-Cys]-Tle-Bal-NH2] ({DOTA-4Amb}-[Aib][Phe(4-Cl)]CKR[Aib]NC[Tle][βAla]-NH2; disulfide 3-8) | < 200 | < 12.6 | – |
| CNCCCC[C@@H]1NC(=O)[C@@H](NC(=O)[C@H](Cc2cccc(C#N)c2)NC(=O)C(C)(C)NC(=O)[C@@H](NC(=O)CC2CCN(C(=O)CN3CCN(CC(=O)O)CCN(CC(=O)O)CCN(CC(=O)O)CC3)CC2)[C@@H](C)O)CSSC[C@@H](C(=O)N[C@H](C(N)=O)C(C)(C)C)NC(=O)[C@H](CC(N)=O)NC(=O)C(C)(C)NC(=O)[C@H](CCCNC(=N)NC)NC1=O [PSM-0459, DOTA-Cmp-Thr-Aib-Mnf-[Cys-Lys(Me)-Arg(Me)-Aib-Asn-Cys]-Tle-NH2] ({DOTA}-[X1]T[Aib][Phe(3-CN)]C[Lys(Me)][Arg(Me)][Aib]NC[Tle]-NH2; disulfide 5-10) | 200 to 1260 | 12.6 to 126 | – |
| CCCCNC(=O)N[C@H](C(=O)NC(C)(C)C(=O)N[C@@H](Cc1ccccc1)C(=O)N[C@H]1CSSC[C@@H](C(=O)N[C@H](C(=O)N[C@H](C(=O)N2CCC(CC(=O)N[C@H](CCCCNC(=O)CN3CCN(CC(=O)O)CCN(CC(=O)O)CCN(CC(=O)O)CC3)C(N)=O)CC2)[C@@H](C)O)C(C)(C)C)NC(=O)[C@H](CC(N)=O)NC(=O)C(C)(C)NC(=O)[C@H](CCCNC(N)=O)NC(=O)[C@H](CCCCN)NC1=O)[C@@H](C)O [PSM-0434, nBuCAyl-Thr-Aib-Phe-[Cys-Lys-Cit-Aib-Asn-Cys]-Tle-Thr-Cmp-lys(DOTA)-NH2] ({NHBu-CO}-T[Aib]FCK[Cit][Aib]NC[Tle]T[X1][dK](DOTA)-NH2; disulfide 4-9) | 200 to 1260 | 12.6 to 126 | – |
| C[C@@H](O)[C@H](NC(=O)[C@@H](NC(=O)[C@@H]1CSSC[C@H](NC(=O)[C@H](Cc2ccc(Cl)cc2)NC(=O)C(C)(C)NC(=O)CCO)C(=O)N[C@@H](CCCCN)C(=O)N[C@@H](CCCNC(=N)N)C(=O)NC(C)(C)C(=O)N[C@@H](CC(N)=O)C(=O)N1)C(C)(C)C)C(=O)N1CCC(CC(=O)N[C@H](CCCCNC(=O)CN2CCN(CC(=O)O)CCN(CC(=O)O)CCN(CC(=O)O)CC2)C(N)=O)CC1 [PSM-0509, HPA-Aib-Pcf-[Cys-Lys-Arg-Aib-Asn-Cys]-Tle-Thr-Cmp-lys(DOTA)-NH2] ({Propanoyl(3-OH)}-[Aib][Phe(4-Cl)]CKR[Aib]NC[Tle]T[X1][dK](DOTA)-NH2; disulfide 3-8) | < 200 | < 12.6 | – |
| CCCCNC(=O)N[C@H](C(=O)NC(C)(C)C(=O)N[C@@H](Cc1ccccc1)C(=O)N[C@H]1CSSC[C@@H](C(=O)N[C@H](C(=O)N[C@H](C(=O)N2CCC(CC(=O)N[C@H](CCCCNC(=O)CN3CCN(CC(=O)O)CCN(CC(=O)O)CCN(CC(=O)O)CC3)C(N)=O)CC2)[C@@H](C)O)C(C)(C)C)NC(=O)[C@H](CC(N)=O)NC(=O)C(C)(C)NC(=O)[C@H](CCCNc2ccccn2)NC(=O)[C@H](CCCCN)NC1=O)[C@@H](C)O [PSM-0258, nBuCAyl-Thr-Aib-Phe-[Cys-Lys-Opy-Aib-Asn-Cys]-Tle-Thr-Cmp-lys(DOTA)-NH] ({NHBu-CO}-T[Aib]FCK[Orn](Pyridin(2-yl))[Aib]NC[Tle]T[X1][dK](DOTA)-NH2; disulfide 4-9) | – | – | IC50 [1, 4]: 200 to 1260 nM; Kd [2, 5]: 126 to 501 nM |
| CNCCCC[C@@H]1NC(=O)[C@@H](NC(=O)[C@H](Cc2ccc(Cl)cc2)NC(=O)C(C)(C)NC(=O)[C@@H](NC(=O)CC2CCN(C(=O)CN3CCN(CC(=O)O)CCN(CC(=O)O)CCN(CC(=O)O)CC3)CC2)[C@@H](C)O)CSSC[C@@H](C(=O)N[C@H](C(N)=O)C(C)(C)C)NC(=O)[C@H](CC(N)=O)NC(=O)C(C)(C)NC(=O)[C@H](CCCNC(=N)NC)NC1=O [PSM-0380, DOTA-Cmp-Thr-Aib-Pcf-[Cys-Lys(Me)-Arg(Me)-Aib-Asn-Cys]-Tle-NH2] ({DOTA}-[X1]T[Aib][Phe(4-Cl)]C[Lys(Me)][Arg(Me)][Aib]NC[Tle]-NH2; disulfide 5-10) | < 200 | < 12.6 | – |
| CC(=O)N[C@H](C(=O)NC(C)(C)C(=O)N[C@@H](Cc1cccc(C(F)(F)F)c1)C(=O)N[C@H]1CSSC[C@@H](C(=O)N[C@H](C(=O)N[C@H](C(N)=O)[C@@H](C)O)C(C)(C)C)NC(=O)[C@H](CC(N)=O)NC(=O)C(C)(C)NC(=O)[C@H](CCCNC(=N)N)NC(=O)[C@H](CCCCN)NC1=O)[C@@H](C)O [PSM-0264, Ac-Thr-Aib-Mtf-[Cys-Lys-Arg-Aib-Asn-Cys]-Tle-Thr-NH2] (Ac-T[Aib][Phe(3-CF3)]CKR[Aib]NC[Tle]T-NH2; disulfide 4-9) | – | – | IC50 [1, 4]: < 200 nM; Kd [2, 5]: < 12.6 nM |
| CC(=O)NC(=N)NCCC[C@@H]1NC(=O)[C@H](CCCCN)NC(=O)[C@@H](NC(=O)[C@H](Cc2ccc(Cl)cc2)NC(=O)C(C)(C)NC(=O)CC2CCN(C(=O)CN3CCN(CC(=O)O)CCN(CC(=O)O)CCN(CC(=O)O)CC3)CC2)CSSC[C@@H](C(=O)N[C@H](C(=O)N[C@H](C(N)=O)[C@@H](C)O)C(C)(C)C)NC(=O)[C@H](CC(N)=O)NC(=O)C(C)(C)NC1=O [PSM-0223, DOTA-Cmp-Aib-Pcf-[Cys-Lys-Arg(Ac)-Aib-Asn-Cys]-Tle-Thr-NH2] ({DOTA}-[X1][Aib][Phe(4-Cl)]CKR(Ac)[Aib]NC[Tle]T-NH2; disulfide 4-9) | – | – | IC50 [1, 4]: 200 to 1260 nM; Kd [2, 5]: 12.6 to 126 nM |
| C[C@@H](O)[C@H](NC(=O)[C@@H](NC(=O)[C@@H]1CSSC[C@H](NC(=O)[C@H](Cc2ccc(Cl)cc2)NC(=O)[C@@](C)(CC(=O)O)NC(=O)[C@@H](NC(=O)CC2CCN(C(=O)CN3CCN(CC(=O)O)CCN(CC(=O)O)CCN(CC(=O)O)CC3)CC2)[C@@H](C)O)C(=O)N[C@@H](CCCCN)C(=O)N[C@@H](CCCNC(=N)N)C(=O)NC(C)(C)C(=O)N[C@@H](CC(N)=O)C(=O)N1)C(C)(C)C)C(N)=O [PSM-0366, DOTA-Cmp-Thr-amd-Pcf-[Cys-Lys-Arg-Aib-Asn-Cys]-Tle-Thr-NH2] ({DOTA}-[X1]T[d(αMeD)][Phe(4-Cl)]CKR[Aib]NC[Tle]T-NH2; disulfide 5-10) | 200 to 1260 | 126 to 501 | – |
| CC(=O)N[C@H](C(=O)NC(C)(C)C(=O)N[C@@H](Cc1ccccc1)C(=O)N[C@H]1CSSC[C@@H](C(=O)NCC(C)(C)C)NC(=O)[C@H](CC(N)=O)NC(=O)C(C)(C)NC(=O)[C@H](CCCNC(=N)N)NC(=O)[C@H](CCCCN)NC1=O)[C@@H](C)O [PSM-0208, Ac-Thr-Aib-Phe-[Cys-Lys-Arg-Aib-Asn-Cys]-NHnPen] (Ac-T[Aib]FCKR[Aib]NC-NHCH2tBu; disulfide 4-9) | – | – | IC50 [1, 4]: 200 to 1260 nM; Kd [2, 5]: 126 to 501 nM |
| CC(=O)N[C@H](C(=O)NC(C)(C)C(=O)N[C@@H](Cc1ccccc1)C(=O)N[C@H]1CSSC[C@@H](C(=O)N[C@@H](CC(C)(C)C)C(N)=O)NC(=O)[C@H](CC(N)=O)NC(=O)C(C)(C)NC(=O)[C@H](CCCNC(=N)N)NC(=O)[C@H](CCCCN)NC1=O)[C@@H](C)O [PSM-0560, Ac-Thr-Aib-Phe-[Cys-Lys-Arg-Aib-Asn-Cys]-Npg-NH2] (Ac-T[Aib]FCKR[Aib]NC[tBuAla]-NH2; disulfide 4-9) | – | – | IC50 ([1]; FACS binding, category): < 200 nM; Kd ([2]; PSMA SPR assay, category): 12.6 to 126 nM |
